The values that follow come from PubChem BioAssay (NCI).

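Interpolation was linear, between the two tested concentrations surrounding the appropriate level; five concentrations were tested over 48 hours in 96-well plates. The concentration for full growth arrest is given as TGI.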 Where only a bound is given, the exact number is not on record here.

Among the test systems are SNB-19 CNS; EKVX NSCLC; NCI-H460 lung; OVCAR-4 ovarian; RPMI-8226 leukemia; OVCAR-5 ovarian; DU-145 prostate; SF-268 CNS; U251 CNS; M14 melanoma.
Test in all cases: NCI anticancer screen, dose series, 48 h

Regarding `[N-]=[N+]=CC(=O)OC(CCl)CCl`, the TGI in the test with SNB-19 CNS, in the test on EKVX NSCLC, in the test on NCI-H460 lung, with OVCAR-4 ovarian, with RPMI-8226 leukemia and in the test with OVCAR-5 ovarian was over 100 µM in each case. The TGI in the test on DU-145 prostate, with SF-268 CNS and with U251 CNS was over 100 µM throughout.

As for `O=C1C(=Nc2ccc(Nc3ccccc3)cc2)Oc2ccccc21`, the TGI in the test with SNB-19 CNS is 8.25 µM; in the test with EKVX NSCLC it was 27.7 µM; in the test with NCI-H460 lung, 30.5 µM; with OVCAR-4 ovarian it was 6.8 µM; in the test with OVCAR-5 ovarian, 10.1 µM; in the test on M14 melanoma, 5.38 µM. Moreover, the TGI worked out at 21 µM with DU-145 prostate, 9.73 µM in the test with SF-268 CNS and 4.27 µM with U251 CNS.

On to `CCOC(=O)CNC(=O)NC12CC3CC(CC(C3)C1)C2`, for which the TGI in the test with SNB-19 CNS was 548 µM; in the test with EKVX NSCLC, over 347 µM; in the test with NCI-H460 lung, over 460 µM; with OVCAR-4 ovarian, over 550 µM; in the test with RPMI-8226 leukemia, over 550 µM; in the test with OVCAR-5 ovarian it was over 550 µM. For the same compound, the TGI with SF-268 CNS and in the test with U251 CNS was over 550 µM throughout.

For the compound `CN(C)CCNC(=O)Cc1ccccc1Nc1c(Cl)cccc1Cl`, the TGI was 31.9 µM with SNB-19 CNS; 43 µM in the test on EKVX NSCLC; 24.7 µM in the test with NCI-H460 lung; 50.6 µM in the test with OVCAR-4 ovarian; 38.2 µM in the test on RPMI-8226 leukemia; 24.2 µM in the test with OVCAR-5 ovarian. In addition, the TGI in the test on M14 melanoma came out at 33.9 µM; with SF-268 CNS, 36.2 µM; with U251 CNS it was 23.6 µM.

With `CCCN(CCC)c1c([N+](=O)[O-])cc(C(=O)N(CC)CC)cc1[N+](=O)[O-]`, the TGI with SNB-19 CNS is over 100 µM; with EKVX NSCLC, 61.3 µM; in the test with NCI-H460 lung, 60.2 µM; in the test on RPMI-8226 leukemia it was 36.3 µM; in the test with OVCAR-5 ovarian it was 94.3 µM; in the test on M14 melanoma it was 79.5 µM. Moreover, the TGI was over 100 µM in the test on SF-268 CNS and 32.7 µM in the test on U251 CNS.

Consider `COc1cc(C2c3cc4c(cc3[C@@H](Nc3ccccc3)C3COC(=O)[C@H]23)OCO4)cc(OC)c1O` (stereo partly specified), for which the TGI in the test with SNB-19 CNS was 11.3 µM; in the test with EKVX NSCLC it was 8.47 µM; in the test with NCI-H460 lung it was 2.86 µM; in the test with OVCAR-4 ovarian it was 34.6 µM; in the test on RPMI-8226 leukemia, 2.23 µM; in the test with OVCAR-5 ovarian it was over 66.8 µM. The same compound had a TGI in the test with SF-268 CNS of 13.2 µM.

On to `C=C(C)CNCCN`, for which the TGI with SNB-19 CNS, in the test with EKVX NSCLC, with NCI-H460 lung, with OVCAR-4 ovarian, in the test on OVCAR-5 ovarian and with M14 melanoma was over 100 µM in each case. Further, the TGI in the test on DU-145 prostate, with SF-268 CNS and in the test on U251 CNS was over 100 µM each time.

For the compound `CNc1[nH]c(=S)nc2sc3c(c12)CCCC3`, the TGI in the test with SNB-19 CNS, with EKVX NSCLC, in the test with OVCAR-4 ovarian, in the test with RPMI-8226 leukemia, with OVCAR-5 ovarian and in the test on DU-145 prostate was over 75 µM throughout. For the same compound, the TGI in the test on SF-268 CNS and in the test on U251 CNS was over 75 µM throughout.

For the compound `CC(C)(CO)CNc1nc(N)nc(Cl)c1/C=N/O`, the TGI with EKVX NSCLC, in the test with NCI-H460 lung, in the test with OVCAR-4 ovarian, in the test on RPMI-8226 leukemia, in the test on OVCAR-5 ovarian and in the test on DU-145 prostate was over 100 µM throughout. Besides, the TGI in the test on SF-268 CNS and in the test on U251 CNS was over 100 µM throughout.

On to `O=C1c2cccc3cccc(c23)C(=O)N1CCCNCCCCNCCCNCCCN1C(=O)c2cccc3cccc(c23)C1=O`, for which the TGI with SNB-19 CNS was determined as 1.58 µM; in the test on EKVX NSCLC, 5.67 µM; in the test on NCI-H460 lung, 1.42 µM; in the test on OVCAR-4 ovarian, 1.76 µM; in the test with OVCAR-5 ovarian, 2.76 µM; in the test on M14 melanoma, 3.64 µM. The results for the TGI in the test with DU-145 prostate, with SF-268 CNS and with U251 CNS were 1.53 µM, 0.665 µM and 1.73 µM, respectively.

Regarding `CC1=C(C#N)c2nc3ccccc3n2C(=O)C1(C)CCO` (stereo unspecified), the TGI in the test with SNB-19 CNS, in the test with EKVX NSCLC, in the test on NCI-H460 lung, in the test on OVCAR-4 ovarian, in the test on OVCAR-5 ovarian and in the test with M14 melanoma was over 100 µM throughout. For the same compound, the TGI in the test with DU-145 prostate, in the test on SF-268 CNS and in the test with U251 CNS was over 100 µM each time.

With `CN1Cc2c(nc(-c3ccccc3)c[n+]2[O-])N(C)C1`, the TGI in the test on SNB-19 CNS, in the test with EKVX NSCLC, in the test with NCI-H460 lung, with OVCAR-4 ovarian, in the test on RPMI-8226 leukemia and with OVCAR-5 ovarian was over 100 µM throughout. Moreover, the TGI with M14 melanoma, with SF-268 CNS and with U251 CNS was over 100 µM throughout.

`Cc1cc(C)nc(NC(=S)Nc2ccc([N+](=O)[O-])cc2)c1`: the TGI in the test with SNB-19 CNS, in the test on EKVX NSCLC, with NCI-H460 lung, in the test with OVCAR-4 ovarian, with RPMI-8226 leukemia and with DU-145 prostate was over 100 µM throughout. The TGI in the test with SF-268 CNS and with U251 CNS was over 100 µM in each case.

Consider `O=C(NCCCl)O/N=C/c1cccnc1`, for which the TGI in the test with SNB-19 CNS, in the test with EKVX NSCLC, with NCI-H460 lung, in the test on OVCAR-4 ovarian, in the test with RPMI-8226 leukemia and in the test with OVCAR-5 ovarian was over 100 µM each time. The TGI with SF-268 CNS and with U251 CNS was over 100 µM throughout.

`Clc1sc(Cl)c2c1[C@@H](Cl)C[C@@H]2Br`: the TGI with SNB-19 CNS, in the test with EKVX NSCLC, with NCI-H460 lung, in the test with OVCAR-4 ovarian, in the test with OVCAR-5 ovarian and with M14 melanoma was over 100 µM each time. For the same compound, the TGI in the test on DU-145 prostate, in the test with SF-268 CNS and in the test with U251 CNS was over 100 µM in each case.

Take `Cn1ncc2c(NCc3ccccc3)ncnc21`: the TGI in the test with SNB-19 CNS, with EKVX NSCLC, in the test on NCI-H460 lung, in the test on OVCAR-4 ovarian, in the test on RPMI-8226 leukemia and in the test on OVCAR-5 ovarian was over 100 µM in each case. The TGI in the test with DU-145 prostate, in the test on SF-268 CNS and in the test with U251 CNS was over 100 µM each time.
